Laboratory results from the supplement of paper PMC8612539.
Values after ≈ are worked out from the molar mass of the structure shown.

Tested on: Pasteurella multocida
Test: minimum inhibitory concentration (MIC)
Procedure: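 Broth microdilution MIC (Sensititre BOPO7F bovine plate, CLSI methods) of 19 antimicrobials against field isolates of P. multocida, M. haemolytica, H. somni (deep nasopharyngeal swabs) and E. coli, Enterococcus spp. (rectal swabs) from weaned dairy heifers. Incubation 16-24 h at 35 C. MIC is the lowest concentration preventing visible growth. Values with <= or > lie at the tested range limits. Trimethoprim-sulfamethoxazole is given as the trimethoprim component of a 1:19 mixture.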

CC[C@H]1OC(=O)C[C@@H](O)[C@H](C)[C@@H](O[C@@H]2O[C@H](C)[C@@H](O)[C@H](N(C)C)[C@H]2O)[C@@H](CCN2C[C@H](C)C[C@H](C)C2)C[C@@H](C)C(=O)/C=C/C(C)=C/[C@@H]1CO[C@@H]1O[C@H](C)[C@@H](O)[C@@H](OC)[C@H]1OC [Tilmicosin]
Settings	minimum inhibitory concentration [µg/mL]
isolate (source animal id): 10	> 16
isolate (source animal id): 11	> 16
isolate (source animal id): 12	> 16
isolate (source animal id): 19	> 16
isolate (source animal id): 23	> 16
isolate (source animal id): 26	> 16
isolate (source animal id): 98	> 16
isolate (source animal id): 104	> 16
isolate (source animal id): 115	> 16
isolate (source animal id): 117	> 16
isolate (source animal id): 118	> 16
isolate (source animal id): 121	> 16
isolate (source animal id): 124	> 16
isolate (source animal id): 125	> 16
isolate (source animal id): 128	> 16
isolate (source animal id): 131	> 16
isolate (source animal id): 135	> 16
isolate (source animal id): 136	> 16
isolate (source animal id): 140	> 16
isolate (source animal id): 144	> 16
isolate (source animal id): 146	> 16
isolate (source animal id): 150	> 16
isolate (source animal id): 151	> 16
isolate (source animal id): 153	> 16
isolate (source animal id): 155	> 16
isolate (source animal id): 157	16 (≈ 18.4 µM)
isolate (source animal id): 160	> 16
isolate (source animal id): 164	> 16
isolate (source animal id): 165	> 16
isolate (source animal id): 167	8 (≈ 9.2 µM)
isolate (source animal id): 168	> 16
isolate (source animal id): 169	4 (≈ 4.6 µM)
isolate (source animal id): 170	16 (≈ 18.4 µM)
isolate (source animal id): 171	8 (≈ 9.2 µM)
isolate (source animal id): 172	8 (≈ 9.2 µM)
isolate (source animal id): 173	> 16
isolate (source animal id): 174	8 (≈ 9.2 µM)
isolate (source animal id): 175	8 (≈ 9.2 µM)
isolate (source animal id): 176	8 (≈ 9.2 µM)
isolate (source animal id): 177	8 (≈ 9.2 µM)
isolate (source animal id): 178	4 (≈ 4.6 µM)
isolate (source animal id): 179	4 (≈ 4.6 µM)
isolate (source animal id): 182	16 (≈ 18.4 µM)
isolate (source animal id): 192	4 (≈ 4.6 µM)
isolate (source animal id): 193	8 (≈ 9.2 µM)
isolate (source animal id): 195	8 (≈ 9.2 µM)
isolate (source animal id): 196	8 (≈ 9.2 µM)
isolate (source animal id): 197	16 (≈ 18.4 µM)
isolate (source animal id): 198	> 16
isolate (source animal id): 199	8 (≈ 9.2 µM)
isolate (source animal id): 200	4 (≈ 4.6 µM)
isolate (source animal id): 201	8 (≈ 9.2 µM)
isolate (source animal id): 203	4 (≈ 4.6 µM)
isolate (source animal id): 204	8 (≈ 9.2 µM)
isolate (source animal id): 205	> 16
isolate (source animal id): 206	8 (≈ 9.2 µM)
isolate (source animal id): 207	8 (≈ 9.2 µM)
isolate (source animal id): 208	4 (≈ 4.6 µM)
isolate (source animal id): 209	4 (≈ 4.6 µM)
isolate (source animal id): 210	> 16
isolate (source animal id): 213	8 (≈ 9.2 µM)
isolate (source animal id): 216	8 (≈ 9.2 µM)
isolate (source animal id): 223	> 16
isolate (source animal id): 227	4 (≈ 4.6 µM)
isolate (source animal id): 229	> 16
isolate (source animal id): 233	> 16
isolate (source animal id): 234	> 16
isolate (source animal id): 237	> 16
isolate (source animal id): 241	> 16
isolate (source animal id): 245	> 16
isolate (source animal id): 247	> 16
isolate (source animal id): 250	> 16
isolate (source animal id): 254	> 16
isolate (source animal id): 255	> 16
isolate (source animal id): 258	8 (≈ 9.2 µM)
isolate (source animal id): 261	> 16
isolate (source animal id): 262	> 16
isolate (source animal id): 269	8 (≈ 9.2 µM)
isolate (source animal id): 270	> 16
isolate (source animal id): 274	> 16
isolate (source animal id): 275	> 16
isolate (source animal id): 276	> 16
isolate (source animal id): 277	8 (≈ 9.2 µM)
isolate (source animal id): 278	> 16
isolate (source animal id): 279	> 16
isolate (source animal id): 280	> 16
isolate (source animal id): 284	> 16
isolate (source animal id): 285	> 16
isolate (source animal id): 287	> 16
isolate (source animal id): 290	> 16
isolate (source animal id): 294	> 16
isolate (source animal id): 295	> 16
isolate (source animal id): 296	> 16
isolate (source animal id): 307	> 16
isolate (source animal id): 310	> 16
isolate (source animal id): 311	> 16
isolate (source animal id): 312	> 16
isolate (source animal id): 313	> 16
isolate (source animal id): 315	> 16
isolate (source animal id): 316	> 16
